The values that follow come from patent US20260297095A1, “NOVEL PYRROLOTRIAZINE DERIVATIVE AND USE THEREOF” (Pelemed Co., Ltd., priority 2024, published 2026).

Experiment [1] concerns KYSE-70 esophageal cancer cell line. In words: Cell growth inhibition of KYSE-70 (Sulforhodamine B). It counts as cell-based. As to conditions: Homo sapiens; KYSE-70, 72 hours; read-out: KYSE70 GI50. A digest of the protocol: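 KYSE-70 cells (YES1-amplified) in RPMI-1640 with 10% FBS were seeded 24 h before treatment with compound at 0.0046–10 µM final. After 72 h, cells were TCA-fixed and stained with sulforhodamine B, with absorbance read at 510 nm. GI50 was derived with a time-zero plate set to 0% and the vehicle control to 100%, in duplicate tests.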

The target of experiment [2] is YES1 kinase (Homo sapiens, UniProt P07947). In words: YES1 kinase inhibition, ADP Glo assay (Promega). It is filed as biochemical. Conditions: for YES1 kinase inhibition at 1 nM (in words) / inhibition at 0.001 µM: compound 1 nM; for inhibition at 0.001 µM: read-out: YES1 enzyme, % inhibition, 1 nM; for inhibition at 0.01 µM: compound 10 nM, read-out: YES1 enzyme, % inhibition, 10 nM; for IC50: class symbols, read-out: YES1 enzyme, IC50; for inhibition at 0.1 µM: compound 100 nM, read-out: YES1 enzyme, % inhibition, 100 nM. A digest of the protocol: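 ADP-Glo luminescence after a 40 min room-temperature reaction of YES1 with ATP and substrate (buffer with MnCl2 and DTT; 10 min compound preincubation) was used as readout. Percent inhibition at 1, 10 and 100 nM compound was calculated relative to negative control after background subtraction, and IC50 values derived.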
Sequence of YES1 kinase (P07947 whole entry): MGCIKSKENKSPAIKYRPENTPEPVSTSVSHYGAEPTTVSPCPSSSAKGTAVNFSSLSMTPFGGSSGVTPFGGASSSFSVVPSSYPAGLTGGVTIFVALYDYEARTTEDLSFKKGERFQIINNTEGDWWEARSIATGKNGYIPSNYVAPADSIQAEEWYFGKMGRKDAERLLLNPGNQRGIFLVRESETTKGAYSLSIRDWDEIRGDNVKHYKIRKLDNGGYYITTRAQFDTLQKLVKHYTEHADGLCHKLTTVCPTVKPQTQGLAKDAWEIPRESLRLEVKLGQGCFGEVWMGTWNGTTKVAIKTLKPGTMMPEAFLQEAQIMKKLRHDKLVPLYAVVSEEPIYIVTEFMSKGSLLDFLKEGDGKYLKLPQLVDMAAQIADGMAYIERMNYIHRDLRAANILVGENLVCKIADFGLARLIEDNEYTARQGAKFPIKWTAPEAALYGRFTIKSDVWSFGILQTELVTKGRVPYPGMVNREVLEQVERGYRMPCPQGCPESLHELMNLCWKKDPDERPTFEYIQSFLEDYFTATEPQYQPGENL

By GI50 is commonly meant the concentration giving 50% growth inhibition. As usually defined, the inhibition is the change of the read-out against control, counted positive when it falls. With `COc1cc(-c2cc(N[C@H]3CC[C@H](N(C)C)C3)n3ncnc(N)c23)ccc1NC(=O)OC(C)(C)C` [Example 112, tert-butyl (4-(4-amino-7-(((1S,3S)-3-(dimethylamino)cyclopentyl)amino)pyrrolo[2,1-f][1,2,4]triazin-5-yl)-2-methoxyphenyl)carbamate], the GI50 in experiment [1] was in the range of 100 to 1000 nM. In addition, in experiment [2], the “YES1 kinase inhibition at 1 nM (in words)” value (“YES1 kinase inhibition” below) is “could be inhibited even at a low concentration of 1 nM”, the inhibition at 0.001 µM was determined as 29% and the inhibition at 0.01 µM stood at 60%.
As usually defined, the IC50 is the concentration needed to halve the response being measured. As for `COc1cc(-c2cc(N3CCC(N)C(C)(C)C3)n3ncnc(N)c23)ccc1NC(=O)OC(C)(C)C` (stereo not drawn) [Example 94, tert-butyl (4-(4-amino-7-(4-amino-3,3-dimethylpiperidin-1-yl)pyrrolo[2,1-f][1,2,4]triazin-5-yl)-2-methoxyphenyl)carbamate], in experiment [1], the GI50 was not above 100 nM. Moreover, in experiment [2], the 50% inhibitory concentration (IC50) is not above 100 nM, the inhibition at 0.01 µM was determined as 41% and the inhibition at 0.1 µM is 78%.
With `CNC1CCN(c2cc(-c3ccc(NC(=O)OC(C)(C)C)c(OC)c3)c3c(N)ncnn23)CC1` [Example 44, tert-butyl (4-(4-amino-7-(4-(methylamino)piperidin-1-yl)pyrrolo[2,1-f][1,2,4]triazin-5-yl)-2-methoxyphenyl)carbamate], in experiment [1], the GI50 was not above 100 nM. In experiment [2], the IC50 was not above 100 nM, the inhibition at 0.01 µM came to 80% and the inhibition at 0.1 µM came to 96%.
For the molecule `COc1cc(-c2cc(N3CCC(N(C)C)CC3)n3ncnc(N)c23)ccc1NC(=O)OC(C)(C)C` [Example 15, tert-butyl (4-(4-amino-7-(4-(dimethylamino)piperidin-1-yl)pyrrolo[2,1-f][1,2,4]triazin-5-yl)-2-methoxyphenyl)carbamate], in experiment [1], the 50% growth inhibitory concentration (GI50) is not above 100 nM. For the same molecule, in experiment [2], the inhibition at 0.01 µM worked out at 67% and the inhibition at 0.1 µM was found to be 88%.
For `COc1cc(-c2cc(N[C@H]3CC[C@@H](N)CC3)n3ncnc(N)c23)ccc1NC(=O)OC(C)(C)C` [Example 121, tert-butyl (4-(4-amino-7-(((1s,4s)-4-aminocyclohexyl)amino)pyrrolo[2,1-f][1,2,4]triazin-5-yl)-2-methoxyphenyl)carbamate], the GI50 in experiment [1] is 100 to 1000 nM. In experiment [2], the inhibition at 0.01 µM worked out at 50% and the inhibition at 0.1 µM was found to be 77%.
Take `COc1cc(-c2cc(-c3ccc(N(C)C)cc3C)n3ncnc(N)c23)ccc1NC(=O)OC(C)(C)C` [Example 2, tert-butyl (4-(4-amino-7-(4-(dimethylamino)-2-methylphenyl)pyrrolo[2,1-f][1,2,4]triazin-5-yl)-2-methoxyphenyl)carbamate]: in experiment [1], the concentration for 50% growth inhibition (GI50) is more than 10000 nM. In experiment [2], the inhibition at 0.01 µM worked out at 21% and the inhibition at 0.1 µM amounted to 28%.
With `COc1cc(-c2cc(N3CCC(CN)CC3)n3ncnc(N)c23)ccc1NC(=O)OC(C)(C)C` [Example 59, tert-butyl (4-(4-amino-7-(4-(aminomethyl)piperidin-1-yl)pyrrolo[2,1-f][1,2,4]triazin-5-yl)-2-methoxyphenyl)carbamate], in experiment [1], the GI50 fell in the range of 100 to 1000 nM. In experiment [2], the half-inhibitory concentration (IC50) was not above 100 nM, the inhibition at 0.01 µM came to 56% and the inhibition at 0.1 µM is 80%.
Regarding `COc1cc(-c2cc(-c3ccc(N(C)C)c(F)c3)n3ncnc(N)c23)ccc1NC(=O)OC(C)(C)C` [Example 4, tert-butyl (4-(4-amino-7-(4-(dimethylamino)-3-fluorophenyl)pyrrolo[2,1-f][1,2,4]triazin-5-yl)-2-methoxyphenyl)carbamate], the GI50 in experiment [1] was in the range of 1000 to 10000 nM. In experiment [2], the inhibition at 0.01 µM worked out at 31% and the inhibition at 0.1 µM worked out at 29%.
Regarding `COc1cc(-c2cc(N3CCC4(CCNC4=O)CC3)n3ncnc(N)c23)ccc1NC(=O)OC(C)(C)C` [Example 53, tert-butyl (4-(4-amino-7-(1-oxo-2,8-diazaspiro[4.5]decan-8-yl)pyrrolo[2,1-f][1,2,4]triazin-5-yl)-2-methoxyphenyl)carbamate], in experiment [1], the GI50 is not above 100 nM. In experiment [2], the inhibition at 0.01 µM came out at 29% and the inhibition at 0.1 µM turned out to be 60%.
In the case of `COc1cc(-c2cc(N3CCC(NC(C)=O)CC3)n3ncnc(N)c23)ccc1NC(=O)OC(C)(C)C` [Example 103, tert-butyl (4-(7-(4-acetamidopiperidin-1-yl)-4-aminopyrrolo[2,1-f][1,2,4]triazin-5-yl)-2-methoxyphenyl)carbamate], the 50% growth inhibitory concentration (GI50) in experiment [1] lay within 100 to 1000 nM. In experiment [2], the inhibition at 0.01 µM was 27% and the inhibition at 0.1 µM came to 66%.
For the molecule `COc1cc(-c2cc(N3CCC(C(=O)O)CC3)n3ncnc(N)c23)ccc1NC(=O)OC(C)(C)C` [Example 89, 1-(4-amino-5-(4-((tert-butoxycarbonyl)amino)-3-methoxyphenyl)pyrrolo[2,1-f][1,2,4]triazin-7-yl)piperidine-4-carboxylic acid], the concentration for 50% growth inhibition (GI50) in experiment [1] is more than 10000 nM. In experiment [2], the “YES1 kinase inhibition” value was “could be inhibited even at a low concentration of 1 nM”, the inhibition at 0.001 µM stood at 19% and the inhibition at 0.01 µM was determined as 34%.
`COc1cc(-c2cc(N3CCC4(CC3)CN(C)C4)n3ncnc(N)c23)ccc1NC(=O)OC(C)(C)C` [Example 21, tert-butyl (4-(4-amino-7-(2-methyl-2,7-diazaspiro[3.5]nonan-7-yl)pyrrolo[2,1-f][1,2,4]triazin-5-yl)-2-methoxyphenyl)carbamate]: in experiment [1], the GI50 lay in the range of 100 to 1000 nM. In addition, in experiment [2], the inhibition at 0.01 µM was determined as 67% and the inhibition at 0.1 µM turned out to be 92%.
Turning to `COc1cc(-c2cc(N3CCC(CO)CC3)n3ncnc(N)c23)ccc1NC(=O)OC(C)(C)C` [Example 102, tert-butyl (4-(4-amino-7-(4-(hydroxymethyl)piperidin-1-yl)pyrrolo[2,1-f][1,2,4]triazin-5-yl)-2-methoxyphenyl)carbamate], the GI50 in experiment [1] is 100 to 1000 nM. In addition, in experiment [2], the “YES1 kinase inhibition” value is reported as “could be inhibited even at a low concentration of 1 nM”, the inhibition at 0.001 µM is 11% and the inhibition at 0.01 µM stood at 39%.
Regarding `COc1cc(-c2cc(N3CCN(C4CC4)CC3)n3ncnc(N)c23)ccc1NC(=O)OC(C)(C)C` [Example 17, tert-butyl (4-(4-amino-7-(4-cyclopropylpiperazin-1-yl)pyrrolo[2,1-f][1,2,4]triazin-5-yl)-2-methoxyphenyl)carbamate], the GI50 in experiment [1] lay in the range of 1000 to 10000 nM. In addition, in experiment [2], the inhibition at 0.01 µM amounted to 53% and the inhibition at 0.1 µM worked out at 59%.
With `CCN(CC)C1CCN(c2cc(-c3ccc(NC(=O)OC(C)(C)C)c(OC)c3)c3c(N)ncnn23)CC1` [Example 14, tert-butyl (4-(4-amino-7-(4-(diethylamino)piperidin-1-yl)pyrrolo[2,1-f][1,2,4]triazin-5-yl)-2-methoxyphenyl)carbamate], the GI50 in experiment [1] lay within 100 to 1000 nM. Further, in experiment [2], the inhibition at 0.01 µM was 19% and the inhibition at 0.1 µM was 77%.
Take `CNC1CCN(CCc2cc(-c3ccc(NC(=O)OC(C)(C)C)c(OC)c3)c3c(N)ncnn23)CC1` [Example 99, tert-butyl (4-(4-amino-7-(2-(4-(methylamino)piperidin-1-yl)ethyl)pyrrolo[2,1-f][1,2,4]triazin-5-yl)-2-methoxyphenyl)carbamate]: in experiment [1], the concentration for 50% growth inhibition (GI50) is not above 100 nM. For the same molecule, in experiment [2], the inhibition at 0.01 µM worked out at 71% and the inhibition at 0.1 µM stood at 90%.
